{
  "source": "patent US20030092083A1",
  "about": "“Cage antigen” (priority 2001, published 2003)",
  "key": {"[1]": {"system": "CAGE expression in PANC-1 and ACHN cancer cell lines", "assay": "RT-PCR of CAGE expression after treatment of cancer cell lines that do not express CAGE", "type": "cell-based", "conditions": "various concentrations for 4 days or 2 μM for various time periods", "from_the_text": "Many of the known C/T antigen genes are methylated in their promoter regions. […] It is understood that it would be within one of ordinary skill in the art to determine the methylation status of CAGE gene by cloning the promoter sequence of CAGE using any available method such as, but not limited to, genomic inverse PCR.\nNext, we investigated whether CAGE gene was methylated. […] For RT-PCR, 5′-[…]-3′ (sense, SEQ ID NO: 11) and 5′-[…]-3′ (antisense, SEQ ID NO: 7) were used. While the mechanism of transcriptional silencing of CAGE in some cancer cell lines may not be clear, it appears that testis-specific expression of CAGE is related at least in part to its demethylation level. In addition, the role of transcription factors in the expression of CAGE gene cannot be ruled out. The absence of transcription factors in other somatic tissues may be responsible for the absence of CAGE expression in these tissues."}, "CD8+ T cells": {"system": "CD8+ T cells", "assay": "IFN-γ ELISPOT assay for measuring CD8+ T cell stimulation", "type": "cell-based, human", "conditions": "10 μg/ml peptide; CD8+ T cells from PBL of healthy HLA-A2 donors as effector, T2 cells as target, 20 hours", "method": "With these peptides, we stimulated CD8+ T cells isolated from PBL of healthy donors. The activated CD8+ T cells were incubated with target cells ([…]). The effect of CD8+ T cells on target cells was measured by ELISPOT assay, which detects the amount of IFN-γ released due to activation of CD8+ T cells.\nFor isolation of PBL, Ficoll-Paque® PLUS (Amersham Pharmacia Biotech) was used. Isolation of PBLs was carried out according to the instruction manual provided by the manufacturer (Amersham Pharmacia Biotech). Briefly, 30 ml of whole blood was mixed with 20 ml of Ficoll-Paque® and centrifuged at 800 g for 20 min. The pellet was transferred to a new tube. 20 ml of PBS buffer was added to the pellet, and centrifuged at 800 g for 10 min. After centrifugation, 10 ml of PBS buffer was added to the pellet. 5 ml of Ficoll-Paque® was added and the contents centrifuged at 800 g for 20 min. 10 ml PBS was added to the pellet for washing, and the contents centrifuged at 800 g for 10 min. Isolated PBLs from healthy donors (HLA-A2 type) were dissolved in RPMI 1640 containing 10% human serum and antibiotics.\nFor isolation of CD8+ T cells from PBL, CD8 negative isolation kit (DYNAL) was used and isolation was carried out according to the instruction manual provided by the manufacturer. […]"}},
  "note": "Entries after “also recorded” stand apart in the source; their conditions may differ.",
  "data": [
    {"compound": "Nc1ncn([C@H]2C[C@H](O)[C@@H](CO)O2)c(=O)n1", "note": "[5-aza-2′-deoxycytidine]", "values": [
      {"measurement": "induction of CAGE expression (RT-PCR)", "setting": "[1]", "result": "induced CAGE expression in both dose and time-dependent manner; also recorded: induced expression of CAGE in dosage and time-dependent manner"}
    ]},
    {"compound": "KMAGELIKI [peptide of CAGE protein, start position 576]", "values": [
      {"measurement": "induction of CD8+ T cells (IFN-γ release, ELISPOT)", "setting": "CD8+ T cells", "result": "showed induction of CD8+ T cells"}
    ]},
    {"compound": "YLMPGFIHL [peptide of CAGE protein, start position 276]", "values": [
      {"measurement": "induction of CD8+ T cells (IFN-γ release, ELISPOT)", "setting": "CD8+ T cells", "result": "showed induction of CD8+ T cells"}
    ]}
  ]
}
